The results in this text go back to PMC5504357, “Antifungal Potential of Copper(II), Manganese(II) and Silver(I) 1,10-Phenanthroline Chelates Against Multidrug-Resistant Fungal Species Forming the Candida haemulonii Complex: Impact on the Planktonic and Biofilm Lifestyles” (Frontiers in Microbiology, 2017).

One series has as its system A549 cells. Nature of the series: Mammalian cell toxicity (MTT assay) and selectivity index. It counts as cell-based, Human. As to conditions: MTT, 48 h incubation. In outline: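 A549 cells were exposed to compounds (0.0313–512 μg/mL) in DMEM for 48 h at 37 °C, 5% CO2. Viability was measured by MTT (3 h, dark), with formazan dissolved in DMSO and read at 450 nm. CC50 was derived, and SI calculated as A549 CC50 divided by C. haemulonii complex GM-MIC.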
Background: Tetrazolium dyes change colour on reduction, which living cells bring about.

For a further series, the system named is Candida duobushaemulonii. Nature of the series: Biofilm-growing cells, XTT assay, bMIC. It counts as cell-based. As to conditions: for GM-bMIC: geometric mean, C. duobushaemulonii isolates; for bMIC: mature biofilm, 48 h, 50% inhibition of metabolic activity. The method in brief:
(§1)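 XTT readout; bMIC = min. conc. inhibiting 50% metabolic activity vs untreated wells. Preformed 48 h biofilms (10^6 cells, Sabouraud-dextrose broth, 37°C), PBS-washed, then 48 h compound exposure at 37°C.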

For series [1], the system named is Candida haemulonii var. vulnera. Put plainly: Biofilm-growing cells, XTT assay, bMIC. It counts as cell-based. Conditions: for GM-bMIC: geometric mean, C. haemulonii var. vulnera isolates; for bMIC: mature biofilm, 48 h, 50% inhibition of metabolic activity. The method in brief:
as §1

The subject of another series is Candida haemulonii. Put plainly: Biofilm-growing cells, XTT assay, bMIC. As to conditions: for GM-bMIC: geometric mean, C. haemulonii isolates, values marked * do not include LIP Ch4 (>512); for bMIC: mature biofilm, 48 h, 50% inhibition of metabolic activity. It counts as cell-based. In outline: as §1

“{[Cu(3,6,9-tdda)(phen)2].3H2O.EtOH}n [compound 7]”: the “A549 (CC50)” value with A549 cells came out at 1.06 µg/mL. The GM-bMIC with Candida duobushaemulonii is 8 mg/L; in series [1], 3.17 mg/L; in the series with Candida haemulonii it was 8 mg/L. Besides, the bMIC came out at 16 mg/L in the series on Candida duobushaemulonii (isolate LIP Ch1); 4 mg/L in the series on Candida duobushaemulonii (isolate LIP Ch6); 8 mg/L in the series on Candida duobushaemulonii (isolate LIP Ch8); 4 mg/L in series [1] (isolate LIP Ch5); 4 mg/L in series [1] (isolate LIP Ch9); 2 mg/L in series [1] (isolate LIP Ch13). Further, the bMIC with Candida haemulonii (isolate LIP Ch4) stood at 32 mg/L; in the series on Candida haemulonii (isolate LIP Ch7) it was 4 mg/L; with Candida haemulonii (isolate LIP Ch14), 4 mg/L.

For the compound `CCO.O=C([O-])COCCOCCOCC(=O)[O-].[Ag+].[Ag+].c1cnc2c(c1)ccc1cccnc12.c1cnc2c(c1)ccc1cccnc12.c1cnc2c(c1)ccc1cccnc12.c1cnc2c(c1)ccc1cccnc12` [compound 16, [Ag2(3,6,9-tdda)(phen)4].EtOH], in the series with A549 cells, the “A549 (CC50)” value was found to be 2.21 µg/mL. Besides, the GM-bMIC with Candida duobushaemulonii is given as 6.35 mg/L; in series [1], 2.52 mg/L; in the series on Candida haemulonii, 16 mg/L. In addition, the bMIC is 4 mg/L in the series with Candida duobushaemulonii (isolate LIP Ch1); 8 mg/L with Candida duobushaemulonii (isolate LIP Ch6); 8 mg/L with Candida duobushaemulonii (isolate LIP Ch8); 4 mg/L in series [1] (isolate LIP Ch5); 1 mg/L in series [1] (isolate LIP Ch9); 4 mg/L in series [1] (isolate LIP Ch13). The results for the bMIC in the series with Candida haemulonii (isolate LIP Ch4), in the series with Candida haemulonii (isolate LIP Ch7) and in the series with Candida haemulonii (isolate LIP Ch14) were 32 mg/L, 16 mg/L and 8 mg/L, respectively.
